From patent US12077503B2, “Substituted cyclic amides and their use as herbicides” (FMC CORPORATION, priority 2015, dated 2024)

Key:
Type in all cases: in vivo
corn (Zea mays) [1] = assay: Test G Post-Emergence Protocol; details: Zea mays, post-emergence, 312 h; for plant injury at 15.625 g/ha: 15.625 g ai/ha, evaluated after 13 days (100=total damage to plant; 0=no damage to plant), read-out: Corn damage rating; for plant injury at 62.5 g/ha: 62.5 g ai/ha, read-out: Corn damage rating (100=total damage to plant; 0=no damage to plant); for plant injury at 62.5 g/ha / plant injury at 250 g/ha: evaluated after 13 days; for plant injury at 250 g/ha: 250 g ai/ha, read-out: damage to plant, Corn (100=total damage to plant; 0=no damage to plant)
How it was run: (§1)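 A glasshouse post-emergence test: 8-day-old plants sprayed at 15.625, 62.5 or 250 g/ha, then grown at 24/16 °C day/night with 14 h light and 65% humidity. Damage rated 13 days later, 0–100.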

[2] = tested on: ivy-leaved morning glory (Ipomoea hederacea); assay: Test G Post-Emergence Protocol; details: Ipomoea, post-emergence, 312 h; for pest or weed control at 15.625 g/ha: 15.625 g ai/ha, evaluated after 13 days (100=total damage to plant; 0=no damage to plant), read-out: Morningglory, Ivy-leaved damage rating; for pest or weed control at 62.5 g/ha: 62.5 g ai/ha, read-out: Morningglory, Ivy-leaved damage rating (100=total damage to plant; 0=no damage to plant); for pest or weed control at 62.5 g/ha / pest or weed control at 250 g/ha: evaluated after 13 days; for pest or weed control at 250 g/ha: 250 g ai/ha, read-out: damage to plant, Morningglory, Ivy-leaved (100=total damage to plant; 0=no damage to plant)
How it was run: as §1

[3] = tested on: redroot pigweed (Amaranthus retroflexus); assay: Test G Post-Emergence Protocol; details: Amaranthus retroflexus, post-emergence, 312 h; for pest or weed control at 15.625 g/ha: 15.625 g ai/ha, evaluated after 13 days (100=total damage to plant; 0=no damage to plant), read-out: Pigweed, Redroot damage rating; for pest or weed control at 62.5 g/ha: 62.5 g ai/ha, read-out: Pigweed, Redroot damage rating (100=total damage to plant; 0=no damage to plant); for pest or weed control at 62.5 g/ha / pest or weed control at 250 g/ha: evaluated after 13 days; for pest or weed control at 250 g/ha: 250 g ai/ha, read-out: damage to plant, Pigweed, Redroot (100=total damage to plant; 0=no damage to plant)
How it was run: as §1

[4] = tested on: barnyardgrass (Echinochloa crus-galli); assay: Test G Post-Emergence Protocol; details: Echinochloa crus-galli, post-emergence, 312 h; for pest or weed control at 15.625 g/ha: 15.625 g ai/ha, evaluated after 13 days (100=total damage to plant; 0=no damage to plant), read-out: Barnyardgrass damage rating; for pest or weed control at 62.5 g/ha: 62.5 g ai/ha, read-out: Barnyardgrass damage rating (100=total damage to plant; 0=no damage to plant); for pest or weed control at 62.5 g/ha / pest or weed control at 250 g/ha: evaluated after 13 days; for pest or weed control at 250 g/ha: 250 g ai/ha, read-out: damage to plant, Barnyardgrass (100=total damage to plant; 0=no damage to plant)
How it was run: as §1

[5] = tested on: velvetleaf (Abutilon theophrasti); assay: Test G Post-Emergence Protocol; details: Abutilon theophrasti, post-emergence, 312 h; for pest or weed control at 15.625 g/ha: 15.625 g ai/ha, evaluated after 13 days (100=total damage to plant; 0=no damage to plant), read-out: Velvetleaf damage rating; for pest or weed control at 62.5 g/ha: 62.5 g ai/ha, read-out: Velvetleaf damage rating (100=total damage to plant; 0=no damage to plant); for pest or weed control at 62.5 g/ha / pest or weed control at 250 g/ha: evaluated after 13 days; for pest or weed control at 250 g/ha: 250 g ai/ha, read-out: damage to plant, Velvetleaf (100=total damage to plant; 0=no damage to plant)
How it was run: as §1

[6] = tested on: giant foxtail (Setaria faberi); assay: Test G Post-Emergence Protocol; details: Setaria faberi, post-emergence, 312 h; for pest or weed control at 15.625 g/ha: 15.625 g ai/ha, evaluated after 13 days (100=total damage to plant; 0=no damage to plant), read-out: Foxtail, Giant damage rating; for pest or weed control at 62.5 g/ha: 62.5 g ai/ha, read-out: Foxtail, Giant damage rating (100=total damage to plant; 0=no damage to plant); for pest or weed control at 62.5 g/ha / pest or weed control at 250 g/ha: evaluated after 13 days; for pest or weed control at 250 g/ha: 250 g ai/ha, read-out: damage to plant, Foxtail, Giant (100=total damage to plant; 0=no damage to plant)
How it was run: as §1

corn (Zea mays) [7] = assay: Test G Pre-Emergence Protocol; details: Zea mays, pre-emergence, 312 h, evaluated after 13 days; for plant injury at 15.625 g/ha: 15.625 g ai/ha; for plant injury at 15.625 g/ha / plant injury at 250 g/ha: read-out: Corn damage rating (100=total damage to plant; 0=no damage to plant); for plant injury at 62.5 g/ha: 62.5 g ai/ha, 100=total damage to plant, 0=no damage to plant, read-out: plant damage rating, Corn; for plant injury at 250 g/ha: 250 g ai/ha
How it was run: (§2)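 Spraying took place one day after sowing, at 15.625, 62.5 or 250 g/ha, using an acetone/water (50:50) spray solution containing 0.5% Tween 20. Plants were kept under glasshouse conditions (24/16 °C, 14 h light, 65% humidity, watered twice daily), and injury was rated 0–100 at day 13.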

[8] = tested on: ivy-leaved morning glory (Ipomoea hederacea); assay: Test G Pre-Emergence Protocol; details: Ipomoea, pre-emergence, 312 h, evaluated after 13 days; for pest or weed control at 15.625 g/ha: 15.625 g ai/ha, read-out: Morning-glory, Ivy-leaved damage rating (100=total damage to plant; 0=no damage to plant); for pest or weed control at 62.5 g/ha: 62.5 g ai/ha, 100=total damage to plant, 0=no damage to plant, read-out: plant damage rating, Morningglory, Ivy-leaved; for pest or weed control at 250 g/ha: 250 g ai/ha, read-out: Morningglory, Ivy-leaved damage rating (100=total damage to plant; 0=no damage to plant)
How it was run: as §2

[9] = tested on: redroot pigweed (Amaranthus retroflexus); assay: Test G Pre-Emergence Protocol; details: Amaranthus retroflexus, pre-emergence, 312 h, evaluated after 13 days; for pest or weed control at 15.625 g/ha: 15.625 g ai/ha; for pest or weed control at 15.625 g/ha / pest or weed control at 250 g/ha: read-out: Pigweed, Redroot damage rating (100=total damage to plant; 0=no damage to plant); for pest or weed control at 62.5 g/ha: 62.5 g ai/ha, 100=total damage to plant, 0=no damage to plant, read-out: plant damage rating, Pigweed, Redroot; for pest or weed control at 250 g/ha: 250 g ai/ha
How it was run: as §2

[10] = tested on: barnyardgrass (Echinochloa crus-galli); assay: Test G Pre-Emergence Protocol; details: Echinochloa crus-galli, pre-emergence, 312 h, evaluated after 13 days; for pest or weed control at 15.625 g/ha: 15.625 g ai/ha, read-out: Barnyard grass damage rating (100=total damage to plant; 0=no damage to plant); for pest or weed control at 62.5 g/ha: 62.5 g ai/ha, 100=total damage to plant, 0=no damage to plant, read-out: plant damage rating, Barnyardgrass; for pest or weed control at 250 g/ha: 250 g ai/ha, read-out: Barnyardgrass damage rating (100=total damage to plant; 0=no damage to plant)
How it was run: as §2

[11] = tested on: velvetleaf (Abutilon theophrasti); assay: Test G Pre-Emergence Protocol; details: Abutilon theophrasti, pre-emergence, 312 h, evaluated after 13 days; for pest or weed control at 15.625 g/ha: 15.625 g ai/ha; for pest or weed control at 15.625 g/ha / pest or weed control at 250 g/ha: read-out: Velvetleaf damage rating (100=total damage to plant; 0=no damage to plant); for pest or weed control at 62.5 g/ha: 62.5 g ai/ha, 100=total damage to plant, 0=no damage to plant, read-out: plant damage rating, Velvetleaf; for pest or weed control at 250 g/ha: 250 g ai/ha
How it was run: as §2

[12] = tested on: giant foxtail (Setaria faberi); assay: Test G Pre-Emergence Protocol; details: Setaria faberi, pre-emergence, 312 h, evaluated after 13 days; for pest or weed control at 15.625 g/ha: 15.625 g ai/ha; for pest or weed control at 15.625 g/ha / pest or weed control at 250 g/ha: read-out: Foxtail, Giant damage rating (100=total damage to plant; 0=no damage to plant); for pest or weed control at 62.5 g/ha: 62.5 g ai/ha, 100=total damage to plant, 0=no damage to plant, read-out: plant damage rating, Foxtail, Giant; for pest or weed control at 250 g/ha: 250 g ai/ha
How it was run: as §2

Row | SMILES | plant injury at 15.625 g/ha (corn (Zea mays) [1]) | plant injury at 62.5 g/ha (corn (Zea mays) [1]) | plant injury at 250 g/ha (corn (Zea mays) [1]) | pest or weed control at 15.625 g/ha [2] | pest or weed control at 62.5 g/ha [2] | pest or weed control at 250 g/ha [2] | pest or weed control at 15.625 g/ha [3] | pest or weed control at 62.5 g/ha [3] | pest or weed control at 250 g/ha [3] | pest or weed control at 15.625 g/ha [4] | pest or weed control at 62.5 g/ha [4] | pest or weed control at 250 g/ha [4] | pest or weed control at 15.625 g/ha [5] | pest or weed control at 62.5 g/ha [5] | pest or weed control at 250 g/ha [5] | pest or weed control at 15.625 g/ha [6] | pest or weed control at 62.5 g/ha [6] | pest or weed control at 250 g/ha [6] | plant injury at 15.625 g/ha (corn (Zea mays) [7]) | plant injury at 62.5 g/ha (corn (Zea mays) [7]) | further results
1 | CN1C[C@@H](c2ccc(C(F)(F)F)cc2)[C@H](C(=O)Nc2cc(Cl)n[nH]2)C1=O (racemic) [Compound 1632] | 0% | 0% | 0% | 0% | 0% | 0% | 0% | 0% | 20% | 0% | 0% | 10% | 0% | 0% | 0% | 0% | 0% | 20% | 0% | 0% | plant injury at 250 g/ha (corn (Zea mays) [7]): 0%; pest or weed control at 15.625 g/ha [8]: 0%; pest or weed control at 62.5 g/ha [8]: 0%; pest or weed control at 250 g/ha [8]: 0%; pest or weed control at 15.625 g/ha [9]: 0%; pest or weed control at 62.5 g/ha [9]: 0%; pest or weed control at 250 g/ha [9]: 0%; pest or weed control at 15.625 g/ha [10]: 0%; pest or weed control at 62.5 g/ha [10]: 0%; pest or weed control at 250 g/ha [10]: 0%; pest or weed control at 15.625 g/ha [11]: 0%; pest or weed control at 62.5 g/ha [11]: 0%; pest or weed control at 250 g/ha [11]: 0%; pest or weed control at 15.625 g/ha [12]: 0%; pest or weed control at 62.5 g/ha [12]: 0%; pest or weed control at 250 g/ha [12]: 0%
2 | CN1C[C@@H](c2ccnc(C(F)(F)F)c2)[C@H](C(=O)Nc2cccc(F)c2F)C1=O (racemic) [Compound 1585] | 30% | 60% | 80% | 20% | 30% | 70% | 0% | 20% | 30% | 70% | 80% | 70% | 0% | 20% | 30% | 60% | 60% | 70% | 0% | 80% | plant injury at 250 g/ha (corn (Zea mays) [7]): 80%; pest or weed control at 15.625 g/ha [8]: 0%; pest or weed control at 62.5 g/ha [8]: 30%; pest or weed control at 250 g/ha [8]: 80%; pest or weed control at 15.625 g/ha [9]: 0%; pest or weed control at 62.5 g/ha [9]: 0%; pest or weed control at 250 g/ha [9]: 20%; pest or weed control at 15.625 g/ha [10]: 70%; pest or weed control at 62.5 g/ha [10]: 90%; pest or weed control at 250 g/ha [10]: 90%; pest or weed control at 15.625 g/ha [11]: 0%; pest or weed control at 62.5 g/ha [11]: 0%; pest or weed control at 250 g/ha [11]: 30%; pest or weed control at 15.625 g/ha [12]: 70%; pest or weed control at 62.5 g/ha [12]: 80%; pest or weed control at 250 g/ha [12]: 90%
